As a reminder, the inhibition is the percentage by which the read-out fell short of the control. As usually defined, the IC50 is the concentration that inhibits the measured activity by half.

Read-outs that look alike come from different tables or passages of the source. Some results are limits rather than exact numbers.

Assay [1] concerns C5a-mediated AKT phosphorylation in Raw 264-7 macrophages. As to the kind of experiment: Cell based ELISA: Akt/PKB phosphorylation in macrophages after C5a stimulation. The note with it: Mus musculus, RAW264.7, 5 min; compound at 10 μM; Raw 264-7 macrophages stimulated with 50 nM C5a for 5 minutes; read-out: percentage of inhibition of C5a-mediated AKT phosphorylation. Here is the method: b) Cell Based ELISA to Monitor PI3K Inhibition:
Measurement of Akt/PKB phosphorylation in macrophages after stimulation with human recombinant Complement 5a (C5a) from Sigma (C5788): Raw 264: Raw 264-7 macrophages (cultured in DMEM-F12 medium containing 10% Fetal Calf serum and antibiotics) are plated at 20,000 cells/well in a 96 MTP 24 h before cell stimulation. Previous to the stimulation with 50 nM of Complement 5a during 5 minutes, Cells are serum starved for 2 h, and pre-treated with inhibitors for 20 minutes. After stimulation cells are fixed in 4% formaldehyde for 20 minutes and washed 3 times in PBS containing 1% Triton X-100 (PBS/Triton). Endogenous peroxidase is blocked by a 20 minutes incubation in 0.6% H2O2 and 0.1% Sodium Azide in PBS/Triton and washed 3 times in PBS/Triton. Cells are then blocked by 60 minutes incubation with 10% foetal calf serum in PBS/Triton. Next, phosphorylated AKWPKB is detected by an overnight incubation at 4° C. with first antibody (anti phospho Serine 473 Akt IHC, Cell Signalling) diluted 800-fold in PBS/Triton, containing 5% bovine serum albumin (BSA). […] The reaction is stopped by addition of 50 μl of 1 M SO4H2 and absorbance is read at 450 nm. […]

In assay [2] the target is Human recombinant GST-PI3Kγ (Homo sapiens, UniProt P48736). As to the kind of experiment: High Throughput PI3K Lipid Kinase Assay (SPA, neomycin-coated beads). In kind it is biochemical. Here is the method: a) High Throughput PI3K Lipid Kinase Assay (Binding Assay):
The assay combines the scintillation proximity assay technology (SPA, Amersham) with the capacity of neomycin (a polycationic antibiotic) to bind phospholipids with high affinity and specificity. The Scintillation Proximity Assay is based on the properties of weakly emitting isotopes (such as ^3H, ^125I, ^33P). Coating SPA beads with neomycin allows the detection of phosphorylated lipid substrates after incubation with recombinant PI3K and radioactive ATP in the same well, by capturing the radioactive phospholipids to the SPA beads through their specific binding to neomycin.
To a 384 wells MTP containing 5 μl of the test compound of Formula (D) (solubilized in 6% DMSO; to yield a concentration of 100, 30, 10, 3, 1, 0.3, 0.1, 0.03, 0.01, 0.001 μM of the test compound), the following assay components are added. 1) 5 μl (58 ng) of Human recombinant GST-PI3Kγ (in Hepes 40 mM, pH 7.4, DTT 1 mM and ethylenglycol 5%) 2) 10 μl of lipid micelles and 3) 10 μl of Kinase buffer ([^33P]γ-ATP 45 μM/60 nCi, MgCl2 30 mM, DTT 1 mM, β-Glycerophosphate 1 mM, Na3VO4 100 μM, Na Cholate 0.3%, in Hepes 40 mM, pH 7.4). After incubation at room temperature for 180 minutes, with gentle agitation, the reaction is stopped by addition of 60 μl of a solution containing 100 μg of neomycin-coated PVT SPA beads in PBS containing ATP 10 mM and EDTA 5 mM. The assay is further incubated at room temperature for 60 minutes with gentle agitation to allow binding of phospholipids to neomycin-SPA beads. After precipitation of the neomycin-coated PVT SPA beads for 5 minutes at 1500×g, radioactive PtdIns(3)P is quantified by scintillation counting in a Wallac MicroBeta™ plate counter.
The values indicated in respect of PI3Kγ refer to the IC50 (μM), i.e. the amount necessary to achieve 50% inhibition of said target. Said values show a considerable potency of the 2-imino-azolinone-vinyl fused-benzene compounds with regard to PI3Kγ.

The test system of a further assay is Class I PI3-kinases. The note with it: cited from earlier work.

Sequence of Human recombinant GST-PI3Kγ (P48736 whole entry): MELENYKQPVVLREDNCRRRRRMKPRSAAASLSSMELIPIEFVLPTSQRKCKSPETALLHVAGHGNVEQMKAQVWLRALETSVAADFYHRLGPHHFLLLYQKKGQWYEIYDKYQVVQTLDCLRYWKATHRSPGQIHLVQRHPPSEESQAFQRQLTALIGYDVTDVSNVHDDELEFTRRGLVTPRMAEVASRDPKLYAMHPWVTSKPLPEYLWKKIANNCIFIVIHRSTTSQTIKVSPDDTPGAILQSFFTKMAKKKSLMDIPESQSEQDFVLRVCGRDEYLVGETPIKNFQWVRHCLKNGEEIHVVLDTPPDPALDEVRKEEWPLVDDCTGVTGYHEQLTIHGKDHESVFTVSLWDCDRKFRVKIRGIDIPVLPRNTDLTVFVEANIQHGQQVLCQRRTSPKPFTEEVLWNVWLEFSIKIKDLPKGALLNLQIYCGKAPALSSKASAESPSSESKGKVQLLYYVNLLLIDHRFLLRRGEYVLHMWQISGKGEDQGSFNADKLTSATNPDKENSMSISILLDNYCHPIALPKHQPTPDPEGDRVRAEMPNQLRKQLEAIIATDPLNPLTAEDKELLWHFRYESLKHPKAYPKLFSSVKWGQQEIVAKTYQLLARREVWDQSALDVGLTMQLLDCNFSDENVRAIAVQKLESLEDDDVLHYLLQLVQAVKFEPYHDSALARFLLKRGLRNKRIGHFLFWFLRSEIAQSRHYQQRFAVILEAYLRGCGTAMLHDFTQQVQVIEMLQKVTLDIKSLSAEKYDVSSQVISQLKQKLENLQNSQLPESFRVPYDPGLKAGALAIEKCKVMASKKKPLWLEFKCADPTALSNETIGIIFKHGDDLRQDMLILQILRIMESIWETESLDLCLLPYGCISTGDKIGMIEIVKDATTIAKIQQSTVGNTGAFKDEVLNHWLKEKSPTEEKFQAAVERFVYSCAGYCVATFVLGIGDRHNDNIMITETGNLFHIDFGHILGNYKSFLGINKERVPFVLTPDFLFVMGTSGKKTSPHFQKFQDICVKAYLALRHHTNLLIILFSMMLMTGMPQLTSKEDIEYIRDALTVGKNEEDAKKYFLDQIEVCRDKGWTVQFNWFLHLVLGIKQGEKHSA

Regarding `O=C1N/C(=N\S(=O)(=O)c2ccccc2)S/C1=C\c1ccc2c(c1)OCO2` [Example 8, N-(5-Benzo[1,3]dioxol-5-ylmethylene-4-oxo-thiazolidin-2-ylidene)-benzenesulfonamide], in assay [1], the inhibition at 10 µM is 100%. Same read-out and setting: the same measure for `CS(=O)(=O)/N=C1\NC(=O)/C(=C/c2ccc3c(c2)OCO3)S1` [Example 10, N-(5-Benzo[1,3]dioxol-5-ylmethylene-4-oxo-thiazolidin-2-ylidene)-methanesulfonamide]: 80%. With `COC(=O)c1sccc1S(=O)(=O)N=C1NC(=O)/C(=C/c2ccc3ncccc3c2)S1` [Example 16, 3-(4-Oxo-5-quinolin-6-ylmethylene-thiazolidin-2-ylidenesulfamoyl)-thiophene-2-carboxylic acid methyl ester], in assay [2], the IC50 was less than 1 µM. Same read-out and setting: the same measure for `CO/N=C1\NC(=O)/C(=C/c2ccc3c(c2)OCO3)S1` [Example 20, 5-Benzo[1,3]dioxol-5-ylmethylene-thiazolidine-2,4-dione 2-(O-methyl-oxime)]: less than 1 µM; for `N#CN=C1NC(=O)/C(=C/c2ccc3nccnc3c2)S1` [Example 21, 4-Oxo-5-quinoxalin-6-ylmethylene-thiazolidin-2-ylidene-cyanamide]: less than 1 µM. Same read-out and setting: the same measure for `O=C1NC(=NCc2ccccc2)S/C1=C\c1ccc2c(c1)OCO2` [Example 22, 5-Benzo[1,3]dioxol-5-ylmethylene-2-benzylimino-thiazolidin-4-one]: less than 1.5 µM; for `CN=C1NC(=O)/C(=C/c2ccc3ncnc(N(C)C)c3c2)S1` [Example 26, 5-(4-Dimethylamino-quinazolin-6-ylmethylene)-2-methylimino-thiazolidin-4-one]: less than 1 µM. Consider `O=c1cc(N2CCOCC2)oc2c(-c3ccccc3)cccc12` [LY294002], for which the IC50 with Class I PI3-kinases (Fruman et al. 1998, read-out: IC50 values against each of these PI3-kinases) is 15 to 20 µM. Consider wortmannin, for which, in the assay on Class I PI3-kinases (read-out: IC50 values against each of the various Class I PI3-kinases), the IC50 is 0.001 to 0.01 µM.

The record behind these values is patent publication US8106214B2, “2-imino-4-(thio) oxo-5-polycyclovinylazolines for use as PI3 kinase inhibitors” (Merck Serono SA, priority 2003, dated 2012).
